From patent US11254686B1 (Corvus Pharmaceuticals, Inc., priority 2017, dated 2022)

Experiments:
Format in all cases: biochemical
adenosine A3 receptor = adenosine A3 receptor (Homo sapiens (Human), UniProt P0DMS8); test: Adenosine receptor activity assay (Table 1), A3 cAMP
Procedure: Table 1. Compounds (e.g., Adenosine Receptor modulators) and activity assay results. The legend is as follows: A=<10 nM; B=10-50 nM; C=50-100 nM; D=100-500; and E=>500 nM. The ratio corresponds to the A2A activity to the A2B activity; or A2A/A2B.

adenosine A2B receptor = adenosine A2B receptor (Homo sapiens (Human), UniProt P29275); test: Adenosine receptor activity assay (Table 1), A2B activity; details: for IC50: read-out: Ave A2B cAMP IC50
Sequence of adenosine A2B receptor (P29275 whole entry): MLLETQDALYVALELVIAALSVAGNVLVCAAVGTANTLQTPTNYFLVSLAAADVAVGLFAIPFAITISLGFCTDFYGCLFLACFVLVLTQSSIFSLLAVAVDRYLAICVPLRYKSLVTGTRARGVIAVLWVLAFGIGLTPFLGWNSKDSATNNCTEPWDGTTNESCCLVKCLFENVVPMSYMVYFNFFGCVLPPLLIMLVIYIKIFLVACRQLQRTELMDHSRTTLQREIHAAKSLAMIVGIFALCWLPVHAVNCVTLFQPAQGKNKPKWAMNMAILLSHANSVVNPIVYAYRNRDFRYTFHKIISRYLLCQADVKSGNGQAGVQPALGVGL

adenosine A2A receptor = adenosine A2A receptor (Homo sapiens (Human), UniProt P29274); test: Adenosine receptor activity assay (Table 1), A2A activity; details: read-out: Ave A2A cAMP IC50
Sequence of adenosine A2A receptor (P29274 whole entry): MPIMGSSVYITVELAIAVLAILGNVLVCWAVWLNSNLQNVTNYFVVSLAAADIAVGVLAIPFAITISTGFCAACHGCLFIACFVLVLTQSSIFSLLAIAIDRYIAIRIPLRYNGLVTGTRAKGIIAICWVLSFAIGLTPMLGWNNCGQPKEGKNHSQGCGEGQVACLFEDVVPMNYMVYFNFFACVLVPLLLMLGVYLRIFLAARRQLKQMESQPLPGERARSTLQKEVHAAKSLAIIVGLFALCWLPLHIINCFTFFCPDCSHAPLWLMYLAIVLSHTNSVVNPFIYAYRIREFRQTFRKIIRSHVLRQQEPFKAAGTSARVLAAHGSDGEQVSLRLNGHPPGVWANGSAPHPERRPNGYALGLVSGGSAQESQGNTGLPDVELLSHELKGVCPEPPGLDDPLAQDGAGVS

[1] = A2A activity to the A2B activity, A2A/A2B

Sequence of adenosine A3 receptor (P0DMS8 whole entry): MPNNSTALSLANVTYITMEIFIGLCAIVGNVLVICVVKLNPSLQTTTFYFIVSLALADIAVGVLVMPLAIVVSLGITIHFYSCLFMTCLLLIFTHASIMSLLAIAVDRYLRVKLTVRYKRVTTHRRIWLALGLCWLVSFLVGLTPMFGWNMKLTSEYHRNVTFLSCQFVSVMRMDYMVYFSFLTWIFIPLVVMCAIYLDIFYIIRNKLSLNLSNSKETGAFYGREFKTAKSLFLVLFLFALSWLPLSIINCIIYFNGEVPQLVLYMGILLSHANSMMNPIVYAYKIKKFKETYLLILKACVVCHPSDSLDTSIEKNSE

Compound | IC50 (adenosine A3 receptor) | IC50 (adenosine A2B receptor) | IC50 (adenosine A2A receptor) | Ratio (adenosine A2B receptor; [1]) | Ratio (adenosine A2B receptor; A2A activity to A2B activity (A2A/A2B))
C[C@H](Nc1nc(C(=O)NCCNC(=O)C(C)(C)C)c2sccc2n1)c1cncc(F)c1 [Example Z537, (S)-2-((1-(5-Fluoropyridin-3-yl)ethyl)amino)-N-(2-pivalamidoethyl)thieno[3,2-d]pyrimidine-4-carboxamide] | – | 100 to 500 nM | 100 to 500 nM | 0.87 | –
C[C@H](Nc1nc(C(=O)NC2CN(C(=O)C(C)(C)C)C2)c2sccc2n1)c1cncc(F)c1 [Example Z545, (S)-2-((1-(5-Fluoropyridin-3-yl)ethyl)amino)-N-(1-pivaloylazetidin-3-yl)thieno[3,2-d]pyrimidine-4-carboxamide] | – | 100 to 500 nM | 100 to 500 nM | – | –
C[C@H](Nc1nc(C(=O)N2CC(C(=O)NCCO)C2)c2sccc2n1)c1cncc(F)c1 [Example Z547, (S)-1-(2-((1-(5-Fluoropyridin-3-yl)ethyl)amino)thieno[3,2-d]pyrimidine-4-carbonyl)-N-(2-hydroxyethyl)azetidine-3-carboxamide] | – | 50 to 100 nM | > 500 nM | 43.40 | –
C[C@H](Nc1nc(C(=O)N2CC(CN(C)C(=O)CC(C)(C)C)C2)c2sccc2n1)c1cncc(F)c1 [Example Z550, (S)—N-((1-(2-((1-(5-Fluoropyridin-3-yl)ethyl)amino)thieno[3,2-d]pyrimidine-4-carbonyl)azetidin-3-yl)methyl)-N,3,3-trimethylbutanamide] | – | 10 to 50 nM | 50 to 100 nM | 4.79 | –
COc1ccc([C@H](C)Nc2nc(C(=O)N3CC(NC(=O)OC(C)C)C3)c3sc(C)cc3n2)cc1 [Example Z555, Isopropyl (S)-(1-(2-((1-(4-methoxyphenyl)ethyl)amino)-6-methylthieno[3,2-d]pyrimidine-4-carbonyl)azetidin-3-yl)carbamate] | – | 100 to 500 nM | 50 to 100 nM | 0.18 | –
COc1ccc([C@H](C)Nc2nc(C(=O)N3CC(NC(C)=O)C3)c3sc(C)cc3n2)cc1 [Example Z556, (S)—N-(1-(2-((1-(4-Methoxyphenyl)ethyl)amino)-6-methylthieno[3,2-d]pyrimidine-4-carbonyl)azetidin-3-yl)acetamide] | – | 100 to 500 nM | 50 to 100 nM | 0.22 | –
C[C@H](Nc1nc(C(=O)N2CC(C(N)=O)C2)c2sccc2n1)c1cncc(F)c1 [Example Z563, (S)-1-(2-((1-(5-Fluoropyridin-3-yl)ethyl)amino)thieno[3,2-d]pyrimidine-4-carbonyl)azetidine-3-carboxamide] | – | 10 to 50 nM | > 500 nM | 16.87 | –
CC(C)C(=O)N1CCN(C(=O)c2nc(N[C@@H](C)c3cncc(F)c3)nc3ccsc23)C1 [Example Z564, (S)-1-(3-(2-((1-(5-Fluoropyridin-3-yl)ethyl)amino)thieno[3,2-d]pyrimidine-4-carbonyl)imidazolidin-1-yl)-2-methylpropan-1-one] | – | 100 to 500 nM | > 500 nM | 18.15 | –
C[C@H](Nc1nc(C(=O)N2CCN(C(=O)C(C)(C)C)C2)c2sccc2n1)c1cncc(F)c1 [Example Z565, (S)-1-(3-(2-((1-(5-Fluoropyridin-3-yl)ethyl)amino)thieno[3,2-d]pyrimidine-4-carbonyl)imidazolidin-1-yl)-2,2-dimethylpropan-1-one] | – | > 500 nM | > 500 nM | 6.39 | –
C[C@H](Nc1nc(C(=O)N2CCN(C(=O)OCC(C)(C)C)C2)c2sccc2n1)c1cncc(F)c1 [Example Z566, Neopentyl (S)-3-(2-((1-(5-fluoropyridin-3-yl)ethyl)amino)thieno[3,2-d]pyrimidine-4-carbonyl)imidazolidine-1-carboxylate] | – | > 500 nM | > 500 nM | 3.10 | –
COC[C@@H]1CCN1C(=O)c1nc(N[C@@H](C)c2cncc(F)c2)nc2cc(C)sc12 [Example Z569, (2-(((S)-1-(5-Fluoropyridin-3-yl)ethyl)amino)-6-methylthieno[3,2-d]pyrimidin-4-yl)((S)-2-(methoxymethyl)azetidin-1-yl)methanone] | – | 100 to 500 nM | > 500 nM | 40.75 | –
COC[C@H]1CCN1C(=O)c1nc(N[C@@H](C)c2cncc(F)c2)nc2cc(C)sc12 [Example Z570, (2-(((S)-1-(5-Fluoropyridin-3-yl)ethyl)amino)-6-methylthieno[3,2-d]pyrimidin-4-yl)((R)-2-(methoxymethyl)azetidin-1-yl)methanone] | – | 10 to 50 nM | > 500 nM | 84.36 | –
C[C@H](Nc1nc(C(=O)N2CCN(C(=O)OC(C)(C)C)C2)c2sccc2n1)c1cncc(F)c1 [Example Z584, tert-Butyl (S)-3-(2-((1-(5-fluoropyridin-3-yl)ethyl)amino)thieno[3,2-d]pyrimidine-4-carbonyl)imidazolidine-1-carboxylate] | – | 100 to 500 nM | > 500 nM | 2.34 | –
COCCC(=O)N1CCN(C(=O)c2nc(N[C@@H](C)c3cncc(F)c3)nc3ccsc23)C1 [Example Z589, (S)-1-(3-(2-((1-(5-Fluoropyridin-3-yl)ethyl)amino)thieno[3,2-d]pyrimidine-4-carbonyl)imidazolidin-1-yl)-3-methoxypropan-1-one] | – | 10 to 50 nM | > 500 nM | 17.96 | –
C[C@H](Nc1nc(C(=O)N2CCN(C(=O)N(C)C)C2)c2sccc2n1)c1cncc(F)c1 [Example Z590, (S)-3-(2-((1-(5-Fluoropyridin-3-yl)ethyl)amino)thieno[3,2-d]pyrimidine-4-carbonyl)-N,N-dimethylimidazolidine-1-carboxamide] | – | 10 to 50 nM | 100 to 500 nM | 11.22 | –
Azetidin-1-yl(2-(((6-methoxypyridin-3-yl)methyl)amino)thieno[3,2-d]pyrimidin-4-yl)methanone [Example Z433] | – | > 500 nM | 100 to 500 nM | 0.22 | –

Second part, the compound after the results:

IC50 (adenosine A3 receptor) | IC50 (adenosine A2B receptor) | IC50 (adenosine A2A receptor) | Ratio (adenosine A2B receptor; [1]) | Ratio (adenosine A2B receptor; A2A activity to A2B activity (A2A/A2B)) | Compound
50 to 100 nM | 10 to 50 nM | – | – | – | CC(=O)Nc1ccc(CCNC(=O)c2nc(N[C@@H](C)c3cccnc3)nc3cc(C)sc23)cc1 [Example Z497, (S)—N-(4-Acetamidophenethyl)-6-methyl-2-((1-(pyridin-3-yl)ethyl)amino)thieno[3,2-d]pyrimidine-4-carboxamide]
– | 10 to 50 nM | > 500 nM | 12.33 | – | C[C@H](Nc1nc(C(=O)NCCNS(C)(=O)=O)c2sccc2n1)c1cncc(F)c1 [Example Z538, (S)-2-((1-(5-Fluoropyridin-3-yl)ethyl)amino)-N-(2-(methylsulfonamido)ethyl)thieno[3,2-d]pyrimidine-4-carboxamide]
– | 10 to 50 nM | 100 to 500 nM | – | – | CC(=O)N1CC(CCNC(=O)c2nc(N[C@@H](C)c3cncc(F)c3)nc3ccsc23)C1 [Example Z539, (S)—N-(2-(1-Acetylazetidin-3-yl)ethyl)-2-((1-(5-fluoropyridin-3-yl)ethyl)amino)thieno[3,2-d]pyrimidine-4-carboxamide]
– | 10 to 50 nM | 100 to 500 nM | – | – | C[C@H](Nc1nc(C(=O)N2CCC(C(=O)NC(C)(C)C)C2)c2sccc2n1)c1cncc(F)c1 (stereo partly drawn) [Example Z548, N-(tert-Butyl)-1-(2-(((S)-1-(5-fluoropyridin-3-yl)ethyl)amino)thieno[3,2-d]pyrimidine-4-carbonyl)pyrrolidine-3-carboxamide]
– | 100 to 500 nM | > 500 nM | 8.82 | – | COC[C@@H]1CCN1C(=O)c1nc(N[C@@H](C)c2cncc(F)c2)nc2ccsc12 [Example Z567, (2-(((S)-1-(5-Fluoropyridin-3-yl)ethyl)amino)thieno[3,2-d]pyrimidin-4-yl)((S)-2-(methoxymethyl)azetidin-1-yl)methanone]
– | 50 to 100 nM | > 500 nM | 12.84 | – | COC[C@H]1CCN1C(=O)c1nc(N[C@@H](C)c2cncc(F)c2)nc2ccsc12 [Example Z568, (2-(((S)-1-(5-Fluoropyridin-3-yl)ethyl)amino)thieno[3,2-d]pyrimidin-4-yl)((R)-2-(methoxymethyl)azetidin-1-yl)methanone]
– | 10 to 50 nM | 100 to 500 nM | 2.90 | – | C[C@H](Nc1nc(C(=O)N2CC(C(=O)OC(C)(C)C)C2)c2sccc2n1)c1cncc(F)c1 [Example Z572, tert-Butyl (S)-1-(2-((1-(5-fluoropyridin-3-yl)ethyl)amino)thieno[3,2-d]pyrimidine-4-carbonyl)azetidine-3-carboxylate]
– | 10 to 50 nM | > 500 nM | 58.55 | – | CCNC1CN(C(=O)c2nc(N[C@@H](C)c3cncc(F)c3)nc3cc(C)sc23)C1 [Example Z574, (S)-(3-(Ethylamino)azetidin-1-yl)(2-((1-(5-fluoropyridin-3-yl)ethyl)amino)-6-methylthieno[3,2-d]pyrimidin-4-yl)methanone]
– | 50 to 100 nM | 100 to 500 nM | 1.63 | – | CC(C)NC(=O)N1CCN(C(=O)c2nc(N[C@@H](C)c3cncc(F)c3)nc3ccsc23)C1 [Example Z587, (S)-3-(2-((1-(5-Fluoropyridin-3-yl)ethyl)amino)thieno[3,2-d]pyrimidine-4-carbonyl)-N-isopropylimidazolidine-1-carboxamide]
– | 10 to 50 nM | 100 to 500 nM | – | 15.05 | (6-Amino-2-(((S)-1-(pyridin-2-yl)ethyl)amino)thieno[3,2-d]pyrimidin-4-yl)((R)-3-fluoropyrrolidin-1-yl)methanone [Example Z174]
